Measured values reported in BindingDB's records for doi:10.1016/j.bmcl.2009.10.054 (AstraZeneca, 2009).

Assay: Inhibition of erythropoietin-stimulated STAT5 expressed in human U2OS cells

EC50: 40 nM
Structure (SMILES): Cc1cc(Nc2nc(N[C@@H](C)c3ncc(F)cn3)c(C#N)nc2C)[nH]n1 [(S)-3-(1-(5-fluoropyrimidin-2-yl)ethylamino)-6-methyl-5-(5-methyl-1H-pyrazol-3-ylamino)pyrazine-2-carbonitrile]
